{"source": "patent US20260183420A1", "about": "“ACTIVATED NANOTHERAPY FOR SICKLE CELL DISEASE” (UNIVERSITY OF MARYLAND, BALTIMORE, priority 2022, published 2026)", "key": {"human SS RBCs": {"tested_on": "human SS RBCs", "test": "Laser ektacytometry during controlled deoxygenation/reoxygenation (LORRCA Oxygenscan): POS, POR, elongation index", "assay_type": "cell-based", "settings": "1 hour", "source_text": "The LORRCA red blood cell analysis platform was used to obtain information on deformability (cell and cell membrane stability), including under an osmotic gradient (osmotic resistance). The platform also can provide data on aggregation tendency and kinetics and measure the relative oxygen pressure at the critical point when the red blood cells start to sickle. Here, RBC Osmotic Fragility (elongation index (EI) vs. osmolality at specific sheer), RBC Deformability (EI vs sheer at specific osmolality), and RBC Oxyscan Sickling Characteristics (EI vs pO2) were determined. See, for example, FIG. 5.\nSee FIG. 6 for a description of how EI is calculated. See FIG. 7 for an example calculation of Oxyscan analysis parameters. […] LORRCA determines POS as the pO2 corresponding to a 5% decrease in EImax. If the EI is not completely stable at high pO2 (i.e., the Oxyscan baseline is not level), POS is calculated to be artificially high. FIG. 9 is a graph showing an example point of sickling (POS) determination from “first derivative,” which is taken from the plot. A common method to process, the first derivative of a spectrum is the rate of change of absorbance with respect to wavelength.\n(§1) FIG. 19A presents illustrative chromatograms (standards & samples).\n(§2) 5-HMF-induced Hb modification was quantitated by HPLC (Waters™ e2695XE Alliance™, Swift WCX-PEEK); O2 dissociation curves (ODC) were measured in intact RBCs (HEMOX Analyzer); pO2's at the point of sickling (POS) and point of unsickling (POU) were determined during controlled Hb O2 unloading/loading, respectively (LORRCA Oxygenscan RR Mechatronics).\n(§3) After either 1 hour or 3 hours, either or both oxygen dissociation curves (ODC) or laser ektacytometry was performed to measure either or both p50 and POS/POR. […] As for PK data, effect upon p50 and POS/POR appear to progress from 1 hour to 3 hours. […] See also the results in FIG. 23. CNP=carbon nanoparticle."}, "[1]": {"biological_target": "T1, Hb (HbO2 affinity) in intact SRBCs (Homo sapiens, UniProt P69905)", "T1 construct": "endogenous in cells; host or cells: red blood cells from patients with sickle cell disease (human SS RBCs)", "T1 sequence (P69905 2-142)": "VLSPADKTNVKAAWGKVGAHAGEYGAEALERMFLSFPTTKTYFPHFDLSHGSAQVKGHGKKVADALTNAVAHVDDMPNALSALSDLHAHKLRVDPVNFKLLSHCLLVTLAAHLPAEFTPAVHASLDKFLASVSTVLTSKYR", "T1 sequence (P68871 with tags, fused parts or gaps E7V partner)": "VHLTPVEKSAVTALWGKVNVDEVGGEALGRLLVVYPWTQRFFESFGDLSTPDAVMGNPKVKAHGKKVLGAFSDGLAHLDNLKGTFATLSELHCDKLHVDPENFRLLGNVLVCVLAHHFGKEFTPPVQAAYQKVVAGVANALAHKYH", "test": "O2 dissociation curve / HbO2 affinity (p50) in intact SRBCs (HEMOX Analyzer)", "assay_type": "cell-based", "settings": "pH 7.4, 5 mM 5-HMF, 1 hour, intact SCD RBCs", "description": "Hemox analysis methods determine oxygen partial pressure and the degree of hemoglobin saturation with oxygen using a Clark oxygen electrode and spectrophotometry, respectively.\nas §1, §2, §3"}, "[2]": {"settings": "human trials; cited from earlier work"}, "[3]": {"tested_on": "RBCs from subjects without sickle cell disease", "test": "RBC lysis, blood from subjects without sickle cell disease", "assay_type": "cell-based, human", "settings": "healthy blood, 1-hour incubation at 37° C.", "description": "Blood samples (RBCs) from subjects without sickle cell disease were tested with compounds to determine whether the compounds have any impact on RBC physiology, including tests for lysis, LORRCA (deformability and osmotic fragility), and HEMOX (ODC (p50) and cooperativity (Hill number)) after a 1-hour incubation at 37° C. See FIG. 33 for results for HPLC analysis of Hb modification; FIG. 34 for results for % RBC lysis for control blood (combined); FIG. 35 for results as shown; FIG. 36 for results for RBC osmotic fragility; and FIG. 37 for p50 and Hill number results for the oxygen dissociation curve (ODC)."}, "[4]": {"biological_target": "T2, Hb (HbS) in human SS RBCs (Homo sapiens, UniProt P69905)", "T2 construct": "endogenous in cells; host or cells: red blood cells from patients with sickle cell disease (human SS RBCs)", "T2 sequence (P69905 2-142)": "as the sequence (P69905 2-142) above", "T2 sequence (P68871 with tags, fused parts or gaps E7V partner)": "as the sequence (P68871 with tags, fused parts or gaps E7V partner) above", "test": "5-HMF-induced Hb modification quantitated by cation exchange HPLC in RBCs from SCD patients", "assay_type": "cell-based", "description": "HPLC was performed to detect binding of an allosteric effector to Hb.\nas §1, §2\nSee data in FIG. 21A and FIG. 21B (control patients) and FIG. 21C and FIG. 21D (SCD patients)."}}, "data": [{"smiles": "O=Cc1ccc(CO)o1", "note": "[Nanoparticle 5-HMF, 5-(hydroxymethyl)furfural]", "values": [{"measurement": "POR decrease", "setting": "human SS RBCs; 0 vs 5 mM 5-HMF", "value": 45, "unit": "%"}, {"measurement": "POS decrease", "setting": "human SS RBCs; 0 vs 5 mM 5-HMF", "value": 30, "unit": "%"}, {"measurement": "pO2 at point of sickling (POS)", "setting": "human SS RBCs; 5 mM 5-HMF, SCD RBCs", "value": "39.8±11.6", "unit": "Torr"}, {"measurement": "ODC p50", "setting": "[1]", "value": "20.3±1.5", "unit": "Torr"}, {"measurement": "bioavailability", "setting": "[2]", "value": "low bioavailability"}, {"measurement": "half-life", "setting": "[2]", "value": "~1", "unit": "h"}, {"measurement": "RBC lysis versus PBS control", "setting": "[3]", "value": "no difference"}, {"measurement": "5-HMF induced Hb modification (maximal)", "setting": "[4]; SCD RBCs, 20% Hct, 37° C., 1 hour, 5 mM 5-HMF", "value": "about 75%"}, {"measurement": "relative efficacy for % 5-HMF adducted Hb (ranking high to low)", "setting": "[4]; equimolar for 5-HMF (5 mM), 0.25-24 hours", "value": "(high to low): free CoNP, 5-HMF, LP, CD, LNP"}]}]}
